These are literature values, as cited in paper PMC9109461, “Challenges and opportunities in the development of metal-based anticancer theranostic agents” (Bioscience Reports, 2022).

One data set has as its system HeLa cells. More on the design: method as in PMID 28948792. Conditions: MTT assay. On the technique in general: Tetrazolium assays rely on reduction of a dye to a coloured formazan, in cell work by metabolically active cells.
Another data set concerns A549R. More on the design: method as in PMID 30888144. Conditions: A549R cells.
The test system of the next data set is CaSki cells. Details: method as in PMID 30551086.

What is called IC50 is the concentration that inhibits the measured activity by half. As for [(cis-Pt(NH3)2Cl2] [cisplatin], the IC50 was 3 ± 1.2 µM in the data set on HeLa cells, 51.3 ± 1.9 µM with A549R and 4.2 µM in the data set with CaSki cells.
